Ten molecules from paper PMC12040169 (PLOS Biology, 2025) can be followed below.

≈ marks a conversion by molar mass, not a printed value.

Data set [1] has as its system T1, CTL2-GFP (C. trachomatis L2/434/Bu, GFP-expressing).
T1 construct: L2/434/Bu, GFP-expressing
As to the kind of experiment: microbe, parasite or virus in culture. More on the design: C. trachomatis growth in HeLa, dose-response, mean of bulk GFP fluorescence and imaged total inclusion area. Conditions: Chlamydia trachomatis, HeLa, 28.5 h; mean of GFP and inclusion area. The text has this: (§1) We screened a library of 36,785 small molecules displaying drug-like properties and covering a wide chemical space (Fig 1A and S2A Data). In this process, we also complemented the assay described above with an imaging-based readout (Fig 1B). After measurements of bulk GFP and resorufin fluorescence, cells were fixed, stained with the DNA dye Hoechst, and imaged at a high-content imaging platform to detect chlamydial inclusions (GFP) and host cell nuclei (Hoechst). The total area and number of inclusions in individual wells and the number of nuclei then served as additional proxies for chlamydial growth and host cell viability. […] MICs were calculated as described above.

Data set [2] shares this test system. Briefly: microbe, parasite or virus in culture. Set-up: species or system HeLa; C. trachomatis growth in HeLa, dose-response, mean of bulk GFP fluorescence and imaged total inclusion area. The note with it: Chlamydia trachomatis, 28.5 h; mean of GFP and inclusion area.
Description: as §1

The next data set can be described thus: in vitro. Set-up: Viability of infected HeLa host cells, resazurin conversion, bulk resorufin fluorescence relative to DMSO. Conditions: human, hela cells; bulk resorufin, mean of 3.

A word on the IC50: it is the point on the concentration scale where inhibition reaches its midpoint. One may read the viability as a read-out of living cells in per cent, often relative to untreated cells. As for `CC(Cc1nc(-c2nccn2C)cs1)n1cc(Cl)cn1` (stereo not shown) [c14e], in data set [1], 1.03 µM corresponded to half-maximal inhibition (IC50). This molecule displayed an MIC in data set [2] of 3.65 µM (≈ 1.12 µg/mL). In addition, in “in vitro”, the viability at 28.5 h, 0.000416667 µM was 104%; the viability at 28.5 h, 0.00125 µM was 110%; the viability at 28.5 h, 0.00375 µM amounted to 107%; the viability at 28.5 h, 0.0123333 µM is 105%. Also, in the data set “in vitro”, the viability at 28.5 h, 0.037 µM turned out to be 103%; the viability at 28.5 h, 0.111 µM stood at 106%; the viability at 28.5 h, 0.333 µM was 103%; the viability at 28.5 h, 1 µM came out at 111%. In “in vitro”, the viability at 28.5 h, 3 µM amounted to 108%; the viability at 28.5 h, 10 µM was determined as 110%; the viability at 28.5 h, 30 µM is 110%.

Molecule `CCCN(CCC)CCc1cccc2c1CCN2C(=O)c1cc2ccccc2s1` [c15e] registered an IC50 in data set [1] of 1.15 µM. Further, the MIC in data set [2] worked out at 3.22 µM (≈ 1.31 µg/mL). Further, in “in vitro”, the viability at 28.5 h, 0.000416667 µM was 87.3%; the viability at 28.5 h, 0.00125 µM was found to be 89.2%; the viability at 28.5 h, 0.00375 µM stood at 89.8%; the viability at 28.5 h, 0.0123333 µM came to 88.8%. Moreover, in “in vitro”, the viability at 28.5 h, 0.037 µM amounted to 85.5%; the viability at 28.5 h, 0.111 µM turned out to be 94.8%; the viability at 28.5 h, 0.333 µM is 94.4%; the viability at 28.5 h, 1 µM stood at 90.6%. Further, in the data set “in vitro”, the viability at 28.5 h, 3 µM worked out at 91.2%; the viability at 28.5 h, 10 µM turned out to be 99.9%; the viability at 28.5 h, 30 µM came out at 91.3%.

Regarding `CCOc1ccsc1C(=O)NC1Cc2ccccc2C1` [c16e], it took 1.19 µM to reach half-maximal inhibition in data set [1] (IC50). Further, in data set [2], the MIC stood at 3.2 µM (≈ 0.92 µg/mL). Besides, in the data set “in vitro”, the viability at 28.5 h, 0.000416667 µM was determined as 89.7%; the viability at 28.5 h, 0.00125 µM is 86.9%; the viability at 28.5 h, 0.00375 µM stood at 89.9%; the viability at 28.5 h, 0.0123333 µM came out at 85.4%. In addition, in “in vitro”, the viability at 28.5 h, 0.037 µM stood at 87.1%; the viability at 28.5 h, 0.111 µM came to 85.4%; the viability at 28.5 h, 0.333 µM turned out to be 87.5%; the viability at 28.5 h, 1 µM came out at 84.6%. Further, in the data set “in vitro”, the viability at 28.5 h, 3 µM worked out at 84.5%; the viability at 28.5 h, 10 µM was found to be 84.3%; the viability at 28.5 h, 30 µM came to 87%.

With `Cc1ccc2[nH]c3c(c2c1)CCOC31CCN(Cc2ccccc2-c2ccccc2)CC1` [c22e], the half-maximal inhibitory concentration (IC50) in data set [1] was 1.8 µM. The MIC in data set [2] was determined as 3.81 µM (≈ 1.61 µg/mL). In addition, in the data set “in vitro”, the viability at 28.5 h, 0.000416667 µM is 98.6%; the viability at 28.5 h, 0.00125 µM is 89.4%; the viability at 28.5 h, 0.00375 µM was determined as 94.8%; the viability at 28.5 h, 0.0123333 µM was determined as 87.6%. Besides, in “in vitro”, the viability at 28.5 h, 0.037 µM was 94.6%; the viability at 28.5 h, 0.111 µM amounted to 86.6%; the viability at 28.5 h, 0.333 µM came to 87.8%; the viability at 28.5 h, 1 µM is 85.7%. Moreover, in “in vitro”, the viability at 28.5 h, 3 µM was found to be 85.7%; the viability at 28.5 h, 10 µM stood at 86.9%; the viability at 28.5 h, 30 µM worked out at 70.7%.

In data set [1], `CC(=O)N1CCc2sccc2C1c1ccccc1NCc1ccoc1` (stereo not shown) [c28e] had a half-maximal inhibitory concentration (IC50) of 2.6 µM. This molecule also came in with an MIC in data set [2] of 5.24 µM (≈ 1.85 µg/mL). Further, in the data set “in vitro”, the viability at 28.5 h, 0.000416667 µM amounted to 92.9%; the viability at 28.5 h, 0.00125 µM was 92.5%; the viability at 28.5 h, 0.00375 µM turned out to be 86%; the viability at 28.5 h, 0.0123333 µM was 93.2%. For the same molecule, in the data set “in vitro”, the viability at 28.5 h, 0.037 µM is 90.6%; the viability at 28.5 h, 0.111 µM is 89.2%; the viability at 28.5 h, 0.333 µM came to 86.1%; the viability at 28.5 h, 1 µM came to 90.6%. Also, in the data set “in vitro”, the viability at 28.5 h, 3 µM was 82.6%; the viability at 28.5 h, 10 µM amounted to 87.9%; the viability at 28.5 h, 30 µM is 83%.

Molecule `CCCCc1ccc(NC(=N)Nc2nc(C)cc(C)n2)cc1` [c33e] returned an IC50 in data set [1] of 3.25 µM. Moreover, the MIC in data set [2] came out at 11.7 µM (≈ 3.49 µg/mL). Besides, in the data set “in vitro”, the viability at 28.5 h, 0.000416667 µM is 90.9%; the viability at 28.5 h, 0.00125 µM came to 88%; the viability at 28.5 h, 0.00375 µM is 91.3%; the viability at 28.5 h, 0.0123333 µM was 91.5%. Besides, in the data set “in vitro”, the viability at 28.5 h, 0.037 µM was determined as 93.1%; the viability at 28.5 h, 0.111 µM worked out at 92.6%; the viability at 28.5 h, 0.333 µM is 94.3%; the viability at 28.5 h, 1 µM is 88.2%. In addition, in the data set “in vitro”, the viability at 28.5 h, 3 µM is 98.2%; the viability at 28.5 h, 10 µM came out at 101%; the viability at 28.5 h, 30 µM turned out to be 112%.

In data set [1], `FC(F)(F)CCN1CCC2(CC1)NCCc1c2[nH]c2ccc(Cl)cc12` [c34e] came in with an IC50 of 3.31 µM. This molecule registered an MIC in data set [2] of 11.9 µM (≈ 4.42 µg/mL). In the data set “in vitro”, the viability at 28.5 h, 0.000416667 µM is 86.8%; the viability at 28.5 h, 0.00125 µM was found to be 91.2%; the viability at 28.5 h, 0.00375 µM came out at 88.2%; the viability at 28.5 h, 0.0123333 µM worked out at 90.3%. In “in vitro”, the viability at 28.5 h, 0.037 µM came out at 88.5%; the viability at 28.5 h, 0.111 µM was found to be 93.2%; the viability at 28.5 h, 0.333 µM worked out at 89.1%; the viability at 28.5 h, 1 µM came to 91.8%. In “in vitro”, the viability at 28.5 h, 3 µM turned out to be 88.3%; the viability at 28.5 h, 10 µM was 93.9%; the viability at 28.5 h, 30 µM is 71.8%.

`O=C(CSc1nnc(-c2cccnc2)o1)c1ccccc1` [c35e] gave an IC50 in data set [1] of 3.71 µM. In data set [2], the MIC was found to be 11.9 µM (≈ 3.54 µg/mL). Moreover, in the data set “in vitro”, the viability at 28.5 h, 0.000416667 µM amounted to 99.4%; the viability at 28.5 h, 0.00125 µM is 96.5%; the viability at 28.5 h, 0.00375 µM was determined as 91.9%; the viability at 28.5 h, 0.0123333 µM was 91.4%. In the data set “in vitro”, the viability at 28.5 h, 0.037 µM worked out at 87%; the viability at 28.5 h, 0.111 µM was determined as 90.5%; the viability at 28.5 h, 0.333 µM was 87%; the viability at 28.5 h, 1 µM came to 90.5%. Besides, in “in vitro”, the viability at 28.5 h, 3 µM was determined as 84.4%; the viability at 28.5 h, 10 µM turned out to be 87%; the viability at 28.5 h, 30 µM is 88.7%.

`COc1cccc(CNC(C(=O)O)c2ccc3c(c2)OCO3)c1` (stereo not shown) [c40e]: the IC50 in data set [1] turned out to be 4.96 µM. The molecule also displayed an MIC in data set [2] of 10.8 µM (≈ 3.42 µg/mL). Also, in “in vitro”, the viability at 28.5 h, 0.000416667 µM stood at 109%; the viability at 28.5 h, 0.00125 µM stood at 98.4%; the viability at 28.5 h, 0.00375 µM was found to be 103%; the viability at 28.5 h, 0.0123333 µM came to 95.7%. Moreover, in the data set “in vitro”, the viability at 28.5 h, 0.037 µM was 99.4%; the viability at 28.5 h, 0.111 µM came out at 102%; the viability at 28.5 h, 0.333 µM turned out to be 103%; the viability at 28.5 h, 1 µM came to 104%. In “in vitro”, the viability at 28.5 h, 3 µM stood at 103%; the viability at 28.5 h, 10 µM is 99.7%; the viability at 28.5 h, 30 µM was found to be 89.7%.

The molecule `O=[N+]([O-])c1ccc(-n2cnc3ccccc32)c([N+](=O)[O-])c1` [c41e] returned an IC50 in data set [1] of 5.2 µM. The molecule further had an MIC in data set [2] of 11.2 µM (≈ 3.17 µg/mL). Besides, in the data set “in vitro”, the viability at 28.5 h, 0.000416667 µM is 99%; the viability at 28.5 h, 0.00125 µM was found to be 96.9%; the viability at 28.5 h, 0.00375 µM stood at 102%; the viability at 28.5 h, 0.0123333 µM worked out at 101%. Besides, in the data set “in vitro”, the viability at 28.5 h, 0.037 µM was 104%; the viability at 28.5 h, 0.111 µM came to 97.8%; the viability at 28.5 h, 0.333 µM amounted to 104%; the viability at 28.5 h, 1 µM was 99.3%. Besides, in the data set “in vitro”, the viability at 28.5 h, 3 µM came to 99%; the viability at 28.5 h, 10 µM was 101%; the viability at 28.5 h, 30 µM came out at 96.3%.
